Assay results taken from ChEMBL document CHEMBL1156137, “Synthesis and biological evaluation of 2-amino-7,7-dimethyl 4-substituted-5-oxo-1-(3,4,5-trimethoxy)-1,4,5,6,7,8-hexahydro-quinoline-3-carbonitrile derivatives as potential cytotoxic agents” (Bioorg Med Chem Lett, 2009).

Assays:
[1] = Cytotoxicity against mouse EAC cells assessed as nonviable cell at 50 ug/mL relative to doxorubicin; assay type: functional, Ehrlich
[2] = Cytotoxicity against mouse EAC cells assessed as nonviable cell at 25 ug/mL relative to doxorubicin; assay type: functional, Ehrlich
[3] = Cytotoxicity against mouse EAC cells assessed as nonviable cell at 100 ug/mL relative to doxorubicin; assay type: functional, Ehrlich
[4] = Cytotoxicity against mouse EAC cells assessed as nonviable cell at 10 ug/mL relative to doxorubicin; assay type: functional, Ehrlich
[5] = Cytotoxicity against mouse EAC cells; assay type: functional, cell-based, Ehrlich
[6] = Mus musculus, Ehrlich, read-out: IC50

SMILES	Activity [1] [%]	Activity [2] [%]	Activity [3] [%]	Activity [4] [%]	IC50 [5, 6] [µM]	IC50 ([5]; ehrlich)
COc1cc(N2C(N)=C(C#N)C(c3ccc([N+](=O)[O-])cc3)C3=C2CC(C)(C)CC3=O)cc(OC)c1OC (stereo not given)	70	50	80	10	25	
COc1cc(N2C(N)=C(C#N)C(c3ccccc3Cl)C3=C2CC(C)(C)CC3=O)cc(OC)c1OC (stereo not given)	20	15	20	10		Not Active
COc1cc(N2C(N)=C(C#N)C(c3cccc([N+](=O)[O-])c3)C3=C2CC(C)(C)CC3=O)cc(OC)c1OC (stereo not given)	30	20	30	5		Not Active
COc1cccc2c1C(=O)c1c(O)c3c(c(O)c1C2=O)C[C@@](O)(C(=O)CO)C[C@@H]3O[C@H]1C[C@H](N)[C@H](O)[C@H](C)O1 [DOXORUBICIN]	68	30	100	24	68.1	
COc1cc(N2C(N)=C(C#N)C(c3ccc(Cl)cc3Cl)C3=C2CC(C)(C)CC3=O)cc(OC)c1OC (stereo not given)	95	55	100	20	94.7	
COc1cc(N2C(N)=C(C#N)C(c3ccc(OC)c(OC)c3OC)C3=C2CC(C)(C)CC3=O)cc(OC)c1OC (stereo not given)	30	30	40	20		Not Active
COc1ccccc1C1C(C#N)=C(N)N(c2cc(OC)c(OC)c(OC)c2)C2=C1C(=O)CC(C)(C)C2 (stereo not given)	70	65	100	30	26.6	
COc1cc(N2C(N)=C(C#N)C(c3ccc(C)o3)C3=C2CC(C)(C)CC3=O)cc(OC)c1OC (stereo not given)	41	31	50	21	216	
COc1cc(N2C(N)=C(C#N)C(c3ccc4c(c3)OCO4)C3=C2CC(C)(C)CC3=O)cc(OC)c1OC (stereo not given)	40	30	40	10		Not Active
COc1cc(N2C(N)=C(C#N)C(c3ccc(OC)c4ccccc34)C3=C2CC(C)(C)CC3=O)cc(OC)c1OC (stereo not given)	40	30	40	10		Not Active
COc1cc(N2C(N)=C(C#N)C(c3ccc(C)cc3)C3=C2CC(C)(C)CC3=O)cc(OC)c1OC (stereo not given)	60	50	90	30	52.9	
COc1cc(N2C(N)=C(C#N)C(c3cccs3)C3=C2CC(C)(C)CC3=O)cc(OC)c1OC (stereo not given)	15	10	20	5		Not Active
CCOc1cc(C2C(C#N)=C(N)N(c3cc(OC)c(OC)c(OC)c3)C3=C2C(=O)CC(C)(C)C3)ccc1O (stereo not given)	40	10	45	2		Not Active
COc1cc(N2C(N)=C(C#N)C(c3ccc(O)cc3)C3=C2CC(C)(C)CC3=O)cc(OC)c1OC (stereo not given)	90	20	100	10	75.8	
COc1cc(C2C(C#N)=C(N)N(c3cc(OC)c(OC)c(OC)c3)C3=C2C(=O)CC(C)(C)C3)ccc1O (stereo not given)	30	20	40	10		Not Active
COc1cc(N2C(N)=C(C#N)C(/C=C/c3ccccc3)C3=C2CC(C)(C)CC3=O)cc(OC)c1OC (stereo not given)	30	30	40	10		Not Active
COc1cc(N2C(N)=C(C#N)C(c3c(O)ccc4ccccc34)C3=C2CC(C)(C)CC3=O)cc(OC)c1OC (stereo not given)	15	10	90	2	143	
COc1cc(N2C(N)=C(C#N)C(c3c(OC)ccc4ccccc34)C3=C2CC(C)(C)CC3=O)cc(OC)c1OC (stereo not given)	10	5	30	0		Not Active
COc1cc(N2C(N)=C(C#N)C(c3ccccc3)C3=C2CC(C)(C)CC3=O)cc(OC)c1OC (stereo not given)	8	6	10	0		Not Active
COc1ccc(C2C(C#N)=C(N)N(c3cc(OC)c(OC)c(OC)c3)C3=C2C(=O)CC(C)(C)C3)cc1 (stereo not given)	11	1	15	0		Not Active
COc1cc(N2C(N)=C(C#N)C(c3ccccc3O)C3=C2CC(C)(C)CC3=O)cc(OC)c1OC (stereo not given)	2	0	10	0		Not Active
